# Columns and labels:
# [1] = in vivo
# Experimental: (§1) FLBZ-solution (2% w/v) was prepared by dissolution of 2 g of pure FLBZ and 10 g of HPßCD in 100 mL of dionized water (pH 1.2). The pH was adjusted using hydrochloric acid (25 mM). The formulation was shaken during 48 h (40°C) and then was filtrated through a 0.45 μm filter (Whatman, NJ, USA). The final FLBZ concentration was confirmed by HPLC (n = 4). The FLBZ suspension (2% w/v) was performed by addition of 2 g FLBZ pure standard in a suspension of CMC (0.5% w/v) prepared with deionized water (100 mL, pH = 6.0) under shaking (24 h). The FLBZ suspension was vigorously shaken before its administration to sheep.
# (§2) Six (6) parasite-free Corriedale male sheep (average weight: 50.6 ± 6.0 kg) were used in this experiment. Animals were kept indoors with commercial balanced food and water ad libitum for two months prior and during the trial. Four (4) animals were surgically fitted with a permanent cannula in the pyloric region of the abomasum following an adaptation of the technique described by Komarek. A 6-week post-surgery recovery period was allowed before starting the pharmacokinetic trials. […]
# (§3) Experimental and fortified samples of plasma and abomasal fluid were analyzed for FLBZ, R-FLBZ, H-FLBZ and the internal standard (OBZ) by HPLC following the method described by Moreno et al.. […]
# [2] = Abomasal fluid pharmacokinetics after intraruminal (i.r.) administration of FLBZ formulations (Experiment 1); assay type: in vivo; details: sheep, after i.r. FLBZ administration as both formulations
# Experimental: as §1, §2, §3
# [3] = In vitro aqueous solubility of BZD compounds with or without HPßCD (10%); details: for aqueous solubility: 25°C, n = 6, mean ± SD; for HPßCD-induced solubility increasing effect: pH 1.2, with versus without HPßCD (10%); for solubility at 2 weeks: 25 °C, thermodynamic from solid
# Experimental: BZD solubilities were determined in aqueous solutions at pH values of 1.2 (HCl/KCl) and 7.4 (KH2PO4) with or without HPßCD (10%). An excess amount of ABZ, ABZSO, MBZ, OFZ or FLBZ was suspended in glass tubes containing 10 mL of each medium. The tubes were placed in a water bath at 25°C with a constant shaken rate of 100 strokes/min for two weeks (Yamato BT-31, Yamato Scientific Co., Japan). […] The supernatants were collected and filtered through a 0.2 μm filter (Whatman Inc., NJ, USA). After filtration, samples were analyzed for drug quantification by HPLC following the method described below.
# Experimental and fortified samples of plasma and abomasal fluid were analyzed for FLBZ, R-FLBZ, H-FLBZ and the internal standard (OBZ) by HPLC following the method described by Moreno et al.. Briefly, 50 μL of sample were injected in a Shimadzu 10 A HPLC System (Kyoto, Japan), using an UV detector set at 292 nm, an autosampler and a controller (Shimadzu Class LC10, Kyoto, Japan). Elution from the stationary phase (Selectosil C18 column, 5 μm, 250 × 4.6 mm, Phenomenex®, CA, USA) has been carried out at a flow rate of 1.2 mL/min, using a mixture of acetonitrile:potassium phosphate buffer (25 mM, pH 5.3) (40:60) as a mobile phase, during 13 min at 30°C.
# parasite motility = system: parasite motility; parameters: method as in PMID 9421720; details: cited from earlier work
# ß-tubulin = system: ß-tubulin; parameters: method as in PMID 15463312; details: cited from earlier work
# [4] = aqueous solution (HCl/KCl) with 10% HPβCD, pH 1.2, aqueous with cosolvent or surfactant or cyclodextrin
# [5] = aqueous solution (HCl/KCl) without HPβCD, pH 1.2, simulated gastric fluid
# [6] = aqueous solution (KH2PO4) with 10% HPβCD, pH 7.4, aqueous with cosolvent or surfactant or cyclodextrin
structure (smiles),measurement,setting,value
Nc1nc2ccc(C(=O)c3ccc(F)cc3)cc2[nH]1 [H-FLBZ],time of detection in plasma (low concentrations),[1],18 to 48 h
"COC(=O)Nc1nc2ccc(C(O)c3ccc(F)cc3)cc2[nH]1 (centres unmarked) [R-FLBZ, reduced flubendazole]",time of detection in abomasal fluid post-treatment,[2],up to 96 h
"CCC[S+]([O-])c1ccc2[nH]c(NC(=O)OC)nc2c1 (centres unmarked) [Albendazole sulphoxide, albendazole sulphoxide]",highest aqueous solubility,[3]; pH 1.2 (value of Table 1 with HPßCD),6600 ± 1300 µg/mL
same,aqueous solubility,"[3]; pH 1.2, with HPßCD (10%)",6637.7 ± 1370.2 µg/mL
same,HPßCD-induced solubility increasing effect,[3],0.7 fold
same,aqueous solubility,"[3]; pH 1.2, without HPßCD",3818.6 ± 202.1 µg/mL
same,aqueous solubility,"[3]; pH 7.4, with HPßCD (10%)",871.9 ± 129.3 µg/mL
same,aqueous solubility,"[3]; pH 7.4, without HPßCD",83.6 ± 7.6 µg/mL
CCCSc1ccc2nc(NC(=O)OC)[nH]c2c1 [Albendazole],solubility at 2 weeks,"[3]; pH 1.2, aqueous with cosolvent or surfactant or cyclodextrin",921 ± 347 µg/mL
same,solubility at 2 weeks,"[3]; pH 1.2, simulated gastric fluid",406 ± 53.4 µg/mL
same,solubility at 2 weeks,"[3]; pH 7.4, aqueous buffer",4.6 ± 1.3 µg/mL
same,solubility at 2 weeks,"[3]; pH 7.4, aqueous with cosolvent or surfactant or cyclodextrin",43 ± 8.3 µg/mL
same,HPßCD-induced solubility increasing effect,[3],1.3 fold
COC(=O)Nc1nc2cc(C(=O)c3ccc(F)cc3)ccc2[nH]1 [Flubendazole],solubility at 2 weeks,[3]; [4],2250 ± 552 µg/mL
same,solubility at 2 weeks,[3]; [5],29.6 ± 2.8 µg/mL
same,solubility at 2 weeks,[3]; [6],164 ± 120 µg/mL
same,solubility at 2 weeks,"[3]; aqueous solution (KH2PO4) without HPβCD, pH 7.4, aqueous buffer",5.8 ± 7 µg/mL
same,potency in parasite motility test,parasite motility,high potency
same,affinity binding for ß-tubulin,ß-tubulin,high affinity binding
"COC(=O)Nc1nc2ccc([S+]([O-])c3ccccc3)cc2[nH]1 (centres unmarked) [Oxfendazole, oxfendazole]",solubility at 2 weeks,[3]; [4],1900 ± 606 µg/mL
same,solubility at 2 weeks,[3]; [5],420 ± 29.2 µg/mL
same,solubility at 2 weeks,[3]; [6],348 ± 46.8 µg/mL
same,HPßCD-induced solubility increasing effect,[3],35 fold

# Source: publication PMC3489612, “Exploring flubendazole formulations for use in sheep. Pharmacokinetic evaluation of a cyclodextrin-based solution” (BMC Veterinary Research, 2012)
